According to PMC4427492, “The Repellent DEET Potentiates Carbamate Effects via Insect Muscarinic Receptor Interactions: An Alternative Strategy to Control Insect Vector-Borne Diseases” (PLoS ONE, 2015):

Experiments:
[1] = molecular target: T1, human M3 muscarinic acetylcholine receptor (hM3 mAChR) (Homo sapiens, UniProt P20309); experiment: [3H]NMS radioligand displacement; also antagonism of CCh-induced calcium mobilization; assay type: binding
T1 construct: gene CHRM3; membranes of CHO cells stably expressing human M3
T1 sequence (P20309 whole entry): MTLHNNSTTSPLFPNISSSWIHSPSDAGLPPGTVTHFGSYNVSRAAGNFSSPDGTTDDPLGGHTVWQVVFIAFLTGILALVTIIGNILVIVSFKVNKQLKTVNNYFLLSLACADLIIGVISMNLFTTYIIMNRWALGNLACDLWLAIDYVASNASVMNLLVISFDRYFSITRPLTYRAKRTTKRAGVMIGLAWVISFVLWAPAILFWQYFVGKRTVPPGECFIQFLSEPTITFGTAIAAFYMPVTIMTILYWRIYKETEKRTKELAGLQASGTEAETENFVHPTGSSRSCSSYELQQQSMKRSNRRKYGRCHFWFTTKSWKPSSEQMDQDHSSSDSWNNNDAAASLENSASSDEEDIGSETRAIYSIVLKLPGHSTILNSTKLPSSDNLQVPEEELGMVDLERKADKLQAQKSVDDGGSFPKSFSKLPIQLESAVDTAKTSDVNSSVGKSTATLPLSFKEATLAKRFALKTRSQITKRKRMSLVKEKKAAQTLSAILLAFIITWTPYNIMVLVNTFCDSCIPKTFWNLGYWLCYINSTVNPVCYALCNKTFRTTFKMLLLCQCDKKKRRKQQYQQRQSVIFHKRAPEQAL

[2] = molecular target: T2, human M1 muscarinic acetylcholine receptor (hM1 mAChR) (Homo sapiens, UniProt P11229); experiment: as above; assay type: binding
T2 construct: gene CHRM1; membranes of CHO cells stably expressing human M1
T2 sequence (P11229 1-460): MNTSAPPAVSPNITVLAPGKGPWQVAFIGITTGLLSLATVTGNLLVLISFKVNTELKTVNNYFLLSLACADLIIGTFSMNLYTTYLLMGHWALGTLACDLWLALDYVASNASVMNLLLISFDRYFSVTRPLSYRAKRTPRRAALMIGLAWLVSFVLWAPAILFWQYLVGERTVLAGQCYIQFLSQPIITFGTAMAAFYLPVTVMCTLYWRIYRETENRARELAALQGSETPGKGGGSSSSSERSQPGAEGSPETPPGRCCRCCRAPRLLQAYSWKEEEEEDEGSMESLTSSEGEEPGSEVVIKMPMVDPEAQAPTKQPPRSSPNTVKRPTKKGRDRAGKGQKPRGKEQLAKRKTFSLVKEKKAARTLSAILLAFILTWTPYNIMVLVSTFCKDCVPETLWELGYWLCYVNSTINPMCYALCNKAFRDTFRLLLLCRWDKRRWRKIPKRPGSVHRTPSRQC
Description: [3H]NMS radioligand displacement; also antagonism of CCh-induced calcium mobilization on human M1 muscarinic acetylcholine receptor (hM1 mAChR) | DEET displaced the [^3H]N-Methyl Scopolamine (NMS) binding from M1 and M3 mAChRs but only in the millimolar range

[3] = tested on: acetylcholinesterase (AChE); experiment: Ellman spectrophotometric AChE activity assay on DUM neuron suspension; assay type: cell-based, Periplaneta americana

Compound: CCN(CC)C(=O)c1cccc(C)c1 [DEET, N,N-Diethyl-3-methylbenzamide]
- Ki [1]: 370 ± 20 µM
- Ki [2]: 690 ± 190 µM

Compound: CNC(=O)Oc1ccccc1OC(C)C [propoxur, 2-isopropoxyphenylmethylcarbamate]
- IC50 [3]: 20 nM
